System: Bifidobacterium animalis AMT30
Test: Ability of Bifidobacterium animalis AMT30 to grow in the presence of selected antibiotics (shared cultures, Garche's liquid medium)
Type: cell-based
Settings: for growth of AMT30 in the presence of the antibiotic (in words): 24 h shared culture, relative to control culture or inoculum; for The number of B. animalis AMT30 after 24 hours of incubation: inoculum AMT30 4.9 × 10^6 cfu/ml, antibiotic at concentration corresponding to the animal dose per kg b.w., control without antibiotic 2.4 × 10^9
Protocol: Studies on the ability to grow of Bifidobacterium animalis AMT30 in the presence on 20 selected antibiotics were performed using shared cultures method. For this purpose Garche's liquid medium was inoculated with both Bifidobacterium animalis AMT30 in an amount of 4.9×10^6 colony forming units/ml and one of 20 antibiotics in concentration corresponding to an antibiotic dose used in animal treatment per kilogram of body weight. The culture was carried out in three parallel tubes under anaerobic conditions at 37° C. for 24 hours. In addition, parallel control culture of the studied strain without presence of selected antibiotics was carried out. The number of the live cells was determined directly after inoculation and after 24 hours. Incubation of bacteria on Petri dishes was carried out at 37° C. for 48 hours under anaerobic conditions (sealed jar with GasPack AN0025A cartridge, Oxoid).

## CC[C@H]1OC(=O)C[C@@H](O)[C@H](C)[C@@H](O[C@@H]2O[C@H](C)[C@@H](O)[C@H](N(C)C)[C@H]2O)[C@@H](CCN2C[C@H](C)C[C@H](C)C2)C[C@@H](C)C(=O)/C=C/C(C)=C/[C@@H]1CO[C@@H]1O[C@H](C)[C@@H](O)[C@@H](OC)[C@H]1OC [Tilmicosin]
  growth of AMT30 in the presence of the antibiotic (in words): remained at the level of inoculum

## Cc1cc(-n2c(=O)[nH]c(=O)n(C)c2=O)ccc1Oc1ccc(SC(F)(F)F)cc1 [Toltrazuril]
  growth of AMT30 in the presence of the antibiotic (in words): Outstanding activity to multiply

## COC(=O)Nc1nc2cc(C(=O)c3ccc(F)cc3)ccc2[nH]1 [Flubendazole]
  growth of AMT30 in the presence of the antibiotic (in words): Outstanding activity to multiply

## CCCc1ncc(C[n+]2ccccc2C)c(N)n1 [Amprolium]
  growth of AMT30 in the presence of the antibiotic (in words): Outstanding activity to multiply

## Neomycin
  growth of AMT30 in the presence of the antibiotic (in words): Outstanding activity to multiply
  The number of B. animalis AMT30 after 24 hours of incubation: 3.3 × 10^7 cfu/ml

## c1ccc([C@H]2CN3CCSC3=N2)cc1 [Levamisole]
  growth of AMT30 in the presence of the antibiotic (in words): Outstanding activity to multiply

## Colistin
  growth of AMT30 in the presence of the antibiotic (in words): Outstanding activity to multiply
  The number of B. animalis AMT30 after 24 hours of incubation: 1.9 × 10^9 cfu/ml

## CC[C@H]1OC(=O)C[C@@H](OC(C)=O)[C@H](C)[C@@H](O[C@@H]2O[C@H](C)[C@@H](O[C@H]3C[C@@](C)(O)[C@@H](OC(=O)CC(C)C)[C@H](C)O3)[C@H](N(C)C)[C@H]2O)[C@@H](CC=O)C[C@@H](C)C(=O)/C=C/C(C)=C/[C@@H]1CO[C@@H]1O[C@H](C)[C@@H](O)[C@@H](OC)[C@H]1OC [Tylvalosin]
  The number of B. animalis AMT30 after 24 hours of incubation: 3.2 × 10^5 cfu/ml

## Nc1ccc(S(=O)(=O)[N-]c2cncc(Cl)n2)cc1.[Na+] [Sodium sulfachloropyrazine]
  growth of AMT30 in the presence of the antibiotic (in words): Outstanding activity to multiply
  The number of B. animalis AMT30 after 24 hours of incubation: 2.4 × 10^9 cfu/ml

## CC[C@H]1OC(=O)C[C@@H](O)[C@H](C)[C@@H](O[C@@H]2O[C@H](C)[C@@H](O[C@H]3C[C@@](C)(O)[C@@H](O)[C@H](C)O3)[C@H](N(C)C)[C@H]2O)[C@@H](CC=O)C[C@@H](C)C(=O)/C=C/C(C)=C/[C@@H]1CO[C@@H]1O[C@H](C)[C@@H](O)[C@@H](OC)[C@H]1OC [Tylosin]
  growth of AMT30 in the presence of the antibiotic (in words): remained at the level of inoculum

— patent publication US11045507B2, “Bifidobacterium animalis AMT30 strain and the composition containing the strain of Bifidobacterium animalis AMT30” (priority 2019, dated 2021)
